# Target: h-TRPA1 (Homo sapiens (Human), UniProt O75762)
# Test: Dose response calcium flux (FLIPR) assay, ChanTest hTRPA1-CHO stably transfected cell line
# Type: cell-based
# Conditions: CHO-K1 Tet-on TRPA1 cells; calcium flux after cinnamaldehyde 100 uM agonist; 30 min compound preincubation
# Description: Dose Response Assay: ChanTest hTRPA1-CHO Stably Transfected Cell Line
# To induce expression, tetracycline was added to blasticidin/zeocin-free media at a final concentration of 1 ug/ml. Experiments were run at 24 hours post induction.
# • Harvested cells with 0.025% trypsin/EDTA. • Resuspended cells in growth media without selection antibiotics. • Measured cell density and diluted to 2.4×10^5 cells/ml in media containing 1 ug/ml Doxycycline Plate 25 ul/well into 384 well black/clear tissue culture-treated plates. • Incubated overnight at 37° C. Calcium Flux Assay: Day of Assay: Reagents: • Replacement Buffer: Hank's Balanced Salt Solution, 20 mM HEPES along with 0.005% BSA and 2× Probenecid • Dye Loading Buffer: Cal-3 NW Calcium dye was prepared by dissolving the contents of one vial with […] Hank's Balanced Salt Solution containing 20 mM HEPES. Control Compounds for CHOK1/TRPA1 Cells: • AP-18, stock 10 mM, prepare 3.5× compound dilution in a Compound Buffer (HBSS/20 mM HEPES/0.005% BSA)—final concentration 10 uM. Preparation of Cinnamaldehyde (Agonist Addition): • FW=132.16 • Specific gravity=1.046 gm/cc • 1.32 gm/1.046 gm/cc=1.26 ml of stock • Add 1.74 ml DMSO=3.3 M stock • Working solution 4.5× (final 100 uM in Compound Buffer: HBSS/20 mM HEPES/0.005% BSA) Compounds dilutions were prepared from 5 or 10 mM stock (100% DMSO):
# Compounds were tested at either 20 μM three folds dilution 11 steps out or 30 μM two folds dilution 11 steps out.
# Growth media was removed from the cell plates (20 ul) and 20 ul of the Replacement Buffer was added followed by addition of 25 ul of diluted dye. All three steps were performed using a Plate Washer BioTek 407. The plates were then incubated for 30′ at RT.
# After incubation, both the cell and compound plates were brought to the FLIPR and 20 ul of the diluted compounds/antagonist/bk were transferred to the cell plates by the FLIPR. Plates were then incubated for 30′ at room temperature. After 30′ incubation, plates were returned to the FLIPR and 20 ul of 4.5× Cinnamaldehyde was added to the cell plates. During the compound addition as well as agonist addition, fluorescence readings were taken simultaneously from all 384 wells of the cell plate every 1.5 seconds. Five readings were taken to establish a stable baseline, then 20 ul of sample was rapidly (30 ul/sec) and simultaneously added to each well of the cell plate. The fluorescence was continuously monitored before, during and after sample/agonist addition for a total elapsed time of 100 seconds (compound addition) and 120 seconds (agonist addition). Responses (increase in peak fluorescence) in each well following agonist addition was determined. The initial fluorescence reading from each well, prior to ligand stimulation, was used a zero baseline value for the data from that well.
# Sequence of h-TRPA1 (O75762 whole entry): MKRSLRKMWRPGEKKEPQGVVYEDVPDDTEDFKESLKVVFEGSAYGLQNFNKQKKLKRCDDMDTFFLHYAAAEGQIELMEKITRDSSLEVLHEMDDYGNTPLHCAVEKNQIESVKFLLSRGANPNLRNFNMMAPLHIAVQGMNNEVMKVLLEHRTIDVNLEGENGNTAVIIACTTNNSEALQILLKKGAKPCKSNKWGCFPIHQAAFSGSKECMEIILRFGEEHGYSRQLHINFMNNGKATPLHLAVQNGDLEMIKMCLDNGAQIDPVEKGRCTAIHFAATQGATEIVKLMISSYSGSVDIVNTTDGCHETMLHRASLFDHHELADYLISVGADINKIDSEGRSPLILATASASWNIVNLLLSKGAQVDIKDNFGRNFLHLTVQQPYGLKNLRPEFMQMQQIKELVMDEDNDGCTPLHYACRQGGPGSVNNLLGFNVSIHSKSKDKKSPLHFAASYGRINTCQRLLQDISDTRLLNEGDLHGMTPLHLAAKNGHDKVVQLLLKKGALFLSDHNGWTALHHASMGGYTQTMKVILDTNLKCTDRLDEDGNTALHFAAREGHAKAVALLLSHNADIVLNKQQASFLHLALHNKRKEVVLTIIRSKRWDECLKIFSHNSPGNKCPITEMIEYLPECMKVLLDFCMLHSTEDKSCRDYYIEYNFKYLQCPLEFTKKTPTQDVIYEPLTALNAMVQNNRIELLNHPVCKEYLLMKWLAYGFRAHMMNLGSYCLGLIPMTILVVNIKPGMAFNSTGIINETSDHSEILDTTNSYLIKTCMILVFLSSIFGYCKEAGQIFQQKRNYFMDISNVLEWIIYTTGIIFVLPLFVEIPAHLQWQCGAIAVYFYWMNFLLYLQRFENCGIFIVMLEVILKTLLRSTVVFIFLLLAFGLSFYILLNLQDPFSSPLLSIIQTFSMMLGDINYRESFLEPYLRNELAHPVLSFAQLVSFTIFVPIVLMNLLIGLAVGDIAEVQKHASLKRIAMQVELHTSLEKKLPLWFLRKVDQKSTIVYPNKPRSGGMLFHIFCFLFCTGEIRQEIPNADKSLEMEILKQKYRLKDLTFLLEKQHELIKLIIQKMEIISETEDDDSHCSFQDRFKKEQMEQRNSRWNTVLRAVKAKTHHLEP
row,IC50 [µM],SMILES
1,0.233,"CC(C)N(CC(=O)NCC1CCCN(c2ccc(C(F)(F)F)cc2)C1)S(=O)(=O)c1ccc(F)cc1 (racemic) [Example 2, 2-[(4-Fluoro-benzenesulfonyl)-isopropyl-amino]-N-[1-(4-trifluoromethyl-phenyl)-piperidin-3-ylmethyl]-acetamide]"
2,0.193,"CC(C)N(CC(=O)NCC1CN(c2ccc(C(F)(F)F)cc2)CCO1)S(=O)(=O)c1ccc(F)cc1 (racemic) [Example 8, 2-[(4-Fluoro-benzenesulfonyl)-isopropyl-amino]-N-[4-(4-trifluoromethyl-phenyl)-morpholin-2-ylmethyl]-acetamide]"
3,0.494,"CCN(CC(=O)NCC1CCCN(c2ccc(C(F)(F)F)cc2)C1)S(=O)(=O)c1ccc(F)cc1 (centres unmarked) [Example 1, 2-[Ethyl-(4-fluoro-benzenesulfonyl)-amino]-N-[1-(4-trifluoromethyl-phenyl)-piperidin-3-ylmethyl]-acetamide]"
4,0.634,"CCN(CC(=O)NCC1CCN(c2ccc(C(F)(F)F)cc2)C1)S(=O)(=O)c1ccc(F)cc1 (centres unmarked) [Example 3, 2-[Ethyl-(4-fluoro-benzenesulfonyl)-amino]-N-[1-(4-trifluoromethyl-phenyl)-pyrrolidin-3-ylmethyl]-acetamide]"
5,0.425,"CC(C)N(CC(=O)NCC1CCN(c2ccc(C(F)(F)F)cc2)C1)S(=O)(=O)c1ccc(F)cc1 (centres unmarked) [Example 4, 2-[(4-Fluoro-benzenesulfonyl)-isopropyl-amino]-N-[1-(4-trifluoromethyl-phenyl)-pyrrolidin-3-ylmethyl]-acetamide]"
6,0.307,"CC(C)N(CC(=O)NC[C@@H]1CCCN(c2ccc(C(F)(F)F)cc2)C1)S(=O)(=O)c1ccc(F)cc1 [Example 5, 2-[(4-Fluoro-benzenesulfonyl)-isopropyl-amino]-N—[(S)-1-(4-trifluoromethyl-phenyl)-piperidin-3-ylmethyl]-acetamide]"
7,0.504,"CC(C)N(CC(=O)NC[C@H]1CCCN(c2ccc(C(F)(F)F)cc2)C1)S(=O)(=O)c1ccc(F)cc1 [Example 6, 2-[(4-Fluoro-benzenesulfonyl)-isopropyl-amino]-N—[(R)-1-(4-trifluoromethyl-phenyl)-piperidin-3-ylmethyl]-acetamide]"
8,0.226,"CCN(CC(=O)NCC1CN(c2ccc(C(F)(F)F)cc2)CCO1)S(=O)(=O)c1ccc(F)cc1 (centres unmarked) [Example 9, 2-[Ethyl-(4-fluoro-benzenesulfonyl)-amino]-N-[4-(4-trifluoromethyl-phenyl)-morpholin-2-ylmethyl]-acetamide]"
9,1.31,"CC(C)N(CC(=O)NC[C@@H]1CN(c2ccc(C(F)(F)F)cc2)CCO1)S(=O)(=O)c1ccc(F)cc1 [Example 10, 2-[(4-Fluoro-benzenesulfonyl)-isopropyl-amino]-N—[(R)-4-(4-trifluoromethyl-phenyl)-morpholin-2-ylmethyl]-acetamide]"
10,0.151,"CC(C)N(CC(=O)NC[C@H]1CN(c2ccc(C(F)(F)F)cc2)CCO1)S(=O)(=O)c1ccc(F)cc1 [Example 11, 2-[(4-Fluoro-benzenesulfonyl)-isopropyl-amino]-N—[(S)-4-(4-trifluoromethyl-phenyl)-morpholin-2-ylmethyl]-acetamide]"
11,0.385,"CC(C)N(CC(=O)NCC1CN(c2ccc(C(F)(F)F)cn2)CCO1)S(=O)(=O)c1ccc(F)cc1 (centres unmarked) [Example 12, 2-[(4-Fluoro-benzenesulfonyl)-isopropyl-amino]-N-[4-(5-trifluoromethyl-pyridin-2-yl)-morpholin-2-ylmethyl]-acetamide]"

# — patent publication US9359337B2, “Acetamide derivatives” (Hoffmann-La Roche Inc., priority 2012, dated 2016)
